Source: patent US20020127717A1, “Preparation of replicating macrophages and use in diagnosis and therapy” (priority 2000, published 2002)

Tests used:
[1] = molecular target: T1, Ulex Europaeus-I Agglutimin (UEA-I) (Ulex europaeus, UniProt P22972); experiment: FITC-UEA-I lectin binding to acetone-fixed cells, specificity control; conditions: 0.2M, room temperature, 30 minutes preincubation
T1 construct: purchased Vector Laboratories, Inc
T1 sequence (P22972 1-243): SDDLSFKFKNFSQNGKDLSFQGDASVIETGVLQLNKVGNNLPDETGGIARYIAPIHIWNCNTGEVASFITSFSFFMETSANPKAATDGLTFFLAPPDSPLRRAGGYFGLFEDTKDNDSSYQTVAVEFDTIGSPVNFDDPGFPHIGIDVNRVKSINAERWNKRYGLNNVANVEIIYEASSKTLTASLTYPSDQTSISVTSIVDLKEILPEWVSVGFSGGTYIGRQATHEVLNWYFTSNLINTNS
Protocol: FITC-conjugated Ulex Europaeus-I Agglutimin (UEA-I) (Vector Laboratories, Inc.) was incubated with acetone-fixed cells at 37° C. for 1 hour. The specificity of UEA-I, the lectin was determined by preincubating with 0.2M […] (Sigma), at room temperature for 30 minutes.

[2] = tested on: Bovine Capillary Endothelial Cells (BCE); experiment: DNA synthesis assay (3H-Thymidine), stimulation by growth factors, BCE; assay type: cell-based
Protocol: (§1) DNA Synthesis Assay: DNA synthesis was determined by culturing the cells with ^3H-Thymidine as is standard in the art. The KC isolates used in the assay were at day 21 post liver isolation. The normal endothelial cells and foreskin fibroblasts were cultured in media consisting of RPMI-1640, fetal bovine serum 20% supplemented with specific factors as described in Nakamura S and Salahuddin SZ, Science 242: 426-430,1988. KC isolates were cultured as described above. Cells were harvested between 4 hours and 18 hours culture depending on the stimulatory agent used. A stimulation index was calculated by dividing radioactivity incorporated into cells with the stimulatory agent versus cells in culture medium alone.
(§2) Cultured Cells: Human umbilical vein endothelial cells (HUV-E) were prepared as described in Nakamura et al, Science 1988. Bovine capillary endothelial cells (BCE) were a gift from Dr. Peter Biberfeld of Karolinska Institute, Stockholm, Sweden. Normal human foreskin fibroblasts (HSF) were obtained from the American Type Tissue Culture Collection (ATCC), Rockville, Md. (CRL-1635).
(§3) Various growth factors were tested for their ability to stimulate growth of the human Kupffer cell isolates (KC-3) and other cell types. KC isolates used in this experiment were grown in culture for 21 days with MCG medium.

[3] = tested on: Human Umbilical Vein Endothelial Cells (HUV-E); experiment: DNA synthesis assay (3H-Thymidine), stimulation by growth factors, HUVE; assay type: cell-based
Protocol: as §1, §2, §3

[4] = tested on: human Kupffer cell isolates (KC-1, KC-2, KC-3); experiment: DNA synthesis assay (3H-Thymidine), stimulation by growth factors, Kupffer cell isolates; assay type: cell-based; set-up: key to Stimulation Index of Cultured Target cells: ratio: uptake with stimulatory agent / uptake in medium alone; conditions: for effect on DNA synthesis of KC isolates (in words): KC isolates grown 21 days in MCG medium, summary of Table 3
Protocol: as §1, §3

[5] = tested on: Human Foreskin Fibroblast Cells (HSF); experiment: DNA synthesis assay (3H-Thymidine), stimulation by growth factors, HSF; assay type: cell-based; conditions: HFS
Protocol: as §1, §2, §3

[6] = tested on: human Kupffer cell isolates (KC-1, KC-2, KC-3); experiment: DNA synthesis assay (3H-Thymidine), stimulation by growth factors, Kupffer cell isolates; assay type: cell-based; set-up: key: ratio: uptake with stimulatory agent / uptake in medium alone

Molecule | binding of UEA-I after preincubating the lectin [1] | Stimulation Index of Cultured Target cells ([2]; HC (hydrocortisone) +) | Stimulation Index of Cultured Target cells ([2]; HC (hydrocortisone) −) | Stimulation Index of Cultured Target cells ([3]; HC (hydrocortisone) +) | Stimulation Index of Cultured Target cells ([3]; HC (hydrocortisone) −) | effect on DNA synthesis of KC isolates (in words) [4] | Stimulation Index of Cultured Target cells ([4]; KC-3, HC (hydrocortisone) +) | Stimulation Index of Cultured Target cells ([4]; KC-3, HC (hydrocortisone) −) | Stimulation Index of Cultured Target cells ([5]; HC (hydrocortisone) +) | Stimulation Index of Cultured Target cells ([5]; HC (hydrocortisone) −) | Stimulation Index of Cultured Target cells ([6]; KC-1, HC (hydrocortisone) +) | Stimulation Index of Cultured Target cells ([6]; KC-1, HC (hydrocortisone) −) | Stimulation Index of Cultured Target cells ([6]; KC-2, HC (hydrocortisone) +) | Stimulation Index of Cultured Target cells ([6]; KC-2, HC (hydrocortisone) −)
O=C(CO)[C@H](O)[C@@H](O)[C@@H](O)CO [L-fructose] | No binding was observed | – | – | – | – | – | – | – | – | – | – | – | – | –
BFGF: bFGF = Fibroblast Growth Factor β, Lot # 14765800, Boehringer Manheim | – | 2.3 | 6.2 | 15.4 | 35.4 | little to no effect | 1.2 | 1.2 | 1.9 | 2.2 | 0.5 | 0.8 | 0.5 | 0.6
EGF: epidermal growth factor | – | 2.9 | 6.8 | – | 25.4 | little to no effect | 0.6 | 1.2 | 1.1 | 2.8 | 0.9 | 1.2 | 0.9 | 1.1
PDGF | – | 1.8 | 4.4 | 20.2 | 10.0 | little to no effect | 1.1 | 1.4 | 1.5 | 1.4 | 1.1 | 1.2 | 1.2 | 1.4
TNFα | – | 1.2 | – | 1.0 | – | – | 1.2 | – | 0.8 | – | 0.8 | – | 0.9 | –
